Reference: ChEMBL document CHEMBL1151090, “Synthesis of racemic 2-phosphonomethyl-1,3-dioxolane nucleoside analogues as potential antiviral agents” (Bioorg Med Chem Lett, 1995)

Tests used:
[1] = system: MT4; experiment: Inhibitory activity against HIV-1 replication in MT-4 cells; not cytotoxic; assay type: functional, cell-based; conditions: Homo sapiens
[2] = system: MT4; experiment: Inhibitory activity of compound was determined against HIV-1 replication in MT-4 cells; […]; assay type: functional, cell-based; conditions: Homo sapiens
[3] = system: MT4; experiment: Inhibitory activity against HIV-1 replication in MT-4 cells; Not cytotoxic; assay type: functional, cell-based; conditions: Homo sapiens
[4] = system: MT4; experiment: Inhibitory activity of compound was determined against HIV-1 replication in MT-4 cells; assay type: functional, cell-based; conditions: Homo sapiens
[5] = system: MT4; experiment: Compound was tested for its […] in MT-4 cells; assay type: functional; conditions: Homo sapiens, read-out: CD50 (the source's name)
[6] = system: MT4; experiment: Inhibitory activity of compound was determined against HIV-1 replication in MT-4 cells; weak activity; assay type: functional, cell-based; conditions: Homo sapiens

| SMILES | IC50 [1] [µM] | EC50 [2] [µM] | further results |
| --- | --- | --- | --- |
| Cc1cn([C@H]2CO[C@H](CP(=O)(O)O)O2)c(=O)[nH]c1=O | > 332 | > 332 | – |
| Nc1nc(O)c2ncn([C@H]3CO[C@H](CP(=O)(O)O)O3)c2n1 | – | > 332 | IC50 [3]: > 332 µM |
| Nc1ccn([C@H]2CO[C@H](CP(=O)(O)O)O2)c(=O)n1 | > 332 | > 332 | – |
| Nc1nc(O)c2ncn([C@H]3CO[C@@H](CP(=O)(O)O)O3)c2n1 | > 332 | > 332 | – |
| Cc1cn(C2COC(CO[PH](=O)O)O2)c(=O)[nH]c1=O (stereo not given) | – | – | EC50 [4]: 51 µM; CC50 [5]: 342 µM |
| Nc1ccn([C@H]2CO[C@@H](CP(=O)(O)O)O2)c(=O)n1 | > 332 | 312 | – |
| CC(=O)Nc1ccn(C2COC(CP(=O)(O)O)O2)c(=O)n1 (stereo not given) | – | – | EC50 [6]: 312 µM |
| Cc1cn([C@H]2CO[C@@H](CP(=O)(O)O)O2)c(=O)[nH]c1=O | > 332 | > 332 | – |
